Experiment [1] has as its target T1, hTRPV1 (Homo sapiens, UniProt Q8NER1).
T1 construct: expressed in transfected cells; host or cells: HEK293
As to the kind of experiment: Human TRPV1 (hTRPV1) functional assay, FLIPR intracellular Ca2+, capsaicin challenge. The class given is cell-based. Particulars: HEK293 cells expressing hTRPV1, capsaicin 0.030 μM challenge; for IC50: derived from a variety of test concentrations, read-out: IC50 value (symbol c); for inhibition at 0.5 µM: test concentration of 0.5 μm, read-out: percent inhibition (symbol a). In outline:
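HEK293 cells expressing the channel, loaded with Calcium 3 dye, were exposed to compounds for 5 min before capsaicin 0.030 μM (~80% maximal). FLIPR Ca2+ read; IC50/EC50 from quadruplicate concentration-response, or percent inhibition at 0.5 μm or 0.2 μm.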

Experiment [2] deals with male Sprague-Dawley rats. The experiment in a line: CFA-induced inflammatory pain, reversal of thermal hyperalgesia (radiant heat paw stimulator). Format: in vivo. Particulars: Rattus norvegicus, po, 10 mg/kg orally, 24 h after CFA, maximal during the 300 min test, read-out: % Reversal (maximal percent reversal of hypersensitivity). Here is the method: Compounds of the present invention were tested in animal models of inflammation and inflammatory pain. To assess the ability of test compounds to reverse thermal hyperalgesia, baseline response latencies on a radiant heat (RH) paw stimulator were obtained before an intraplantar injection of 100 μL (1 μg/μL) CFA (1:1 CFA:saline) in male Sprague-Dawley rats. Only withdrawal responses that were quick hind paw movements (with or without licking of the hind paw) were recorded. Paw movements associated with locomotion or a shifting of weight were not considered a withdrawal response. The stimulus intensity that produced 10-15 sec baseline withdrawal latencies was used and a maximum cutoff of 20 sec was imposed. Hypersensitivity was evaluated 24 h after CFA.
Following the post-inflammogen latency assessment, rats were orally dosed (2.5 mL/kg) with test compound (10 mg/kg) or vehicle (20% hydroxypropyl beta cyclodextran). To determine the time of peak effect, latencies were redetermined 30, 60, 100, 180 and 300 min after compound administration.
Data are presented as the maximal percent reversal of hypersensitivity obtained during the 300 min test, which was calculated for each animal according to the formula: % reversal=100%×(treatment response−post-inflammogen response)/(pre-inflammogen response−post-inflammogen response)

The target in experiment [3] is T1, hTRPV1. The experiment in a line: Human TRPV1 [3H]RTX binding assay (membranes of transfected HEK293 cells). Particulars: inhibition of [3H]RTX binding. The method, then: Compounds of the present invention were tested for their ability to inhibit the binding of [^3H] RTX to hTRPV1 receptors in a [^3H] RTX binding assay as previously described (See, PCT International Application WO02/33411A1 and Elfrida G. R. et al., J. Pharmacol. Exp. Ther., 2002, 300(1): 9-17.)
HEK293 cells were transfected with hTRPV1 vanilloid receptors and washed with Hank's balanced Salt Solution, dissociated with cell dissociation buffer (Sigma), and then centrifuged at 1000×g for 5 min. Cell pellets were homogenized in cold 20 mM HEPES buffer (pH=7.4), containing 5.8 mM NaCl, 320 mM sucrose, 2 mM MgCl2, 0.75 CaCl2 and 5 mM KCl and centrifuged at 1000×g for 15 min. The resultant supernatant was then centrifuged at 40,000×g for 15 min. The pelleted membranes were stored in a freezer at −80° C.
Approximately 120 μg protein/mL from membranes were incubated with indicated concentrations of [^3H]RTX in 0.5 mL of the HEPES buffer (pH 7.4) containing 0.25 mg/mL fatty acid-free bovine serum albumin at 37° C. for 60 min. […] Bound radioactivity was quantified by scintillation counting. Non-specific binding was measured in the presence of 200 nM unlabeled RTX.
Data were calculated according to the equation: % inhibition=100%×[(total binding−binding)/(total binding−non specific binding)]. Ki values were calculated using a Prism program.

T1 sequence (Q8NER1 whole entry): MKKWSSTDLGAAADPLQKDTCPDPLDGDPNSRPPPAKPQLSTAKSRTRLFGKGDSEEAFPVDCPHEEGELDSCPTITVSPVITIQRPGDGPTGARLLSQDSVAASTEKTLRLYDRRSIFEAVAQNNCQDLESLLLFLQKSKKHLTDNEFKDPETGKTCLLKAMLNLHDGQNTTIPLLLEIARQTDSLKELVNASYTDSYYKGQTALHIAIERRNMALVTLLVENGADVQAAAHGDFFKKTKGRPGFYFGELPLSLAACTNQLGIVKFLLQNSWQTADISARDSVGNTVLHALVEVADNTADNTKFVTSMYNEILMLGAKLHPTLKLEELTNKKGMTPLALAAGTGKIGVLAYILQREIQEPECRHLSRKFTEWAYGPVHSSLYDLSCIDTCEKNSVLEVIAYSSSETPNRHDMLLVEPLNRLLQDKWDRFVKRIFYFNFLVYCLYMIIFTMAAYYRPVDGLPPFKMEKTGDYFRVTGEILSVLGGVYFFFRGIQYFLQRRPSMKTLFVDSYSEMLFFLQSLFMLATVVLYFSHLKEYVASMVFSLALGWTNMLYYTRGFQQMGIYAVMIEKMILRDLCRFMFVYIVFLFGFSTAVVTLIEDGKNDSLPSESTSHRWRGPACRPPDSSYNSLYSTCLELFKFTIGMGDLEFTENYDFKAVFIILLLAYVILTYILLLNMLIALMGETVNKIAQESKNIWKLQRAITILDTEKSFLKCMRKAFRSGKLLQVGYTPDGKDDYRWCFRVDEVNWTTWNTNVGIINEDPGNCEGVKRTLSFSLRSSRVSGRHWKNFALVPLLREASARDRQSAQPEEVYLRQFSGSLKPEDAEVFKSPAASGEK

As for `NS(=O)(=O)c1ccccc1-c1ccc2[nH]c(COc3ccc(C(F)(F)F)cc3)nc2c1` [Cpd 1, 2-[2-(4-trifluoromethyl-phenoxymethyl)-1H-benzoimidazol-5-yl]-benzenesulfonamide], in experiment [1], the IC50 – broadly, the concentration needed to halve the response being measured – worked out at 3 nM and the inhibition – broadly, the percentage by which the read-out fell short of the control – at 0.5 µM stood at 100%. The inhibition in vivo at 10 mg/kg in experiment [2] was found to be 85%. Besides, in experiment [3], the affinity, expressed as Ki, was 2.7 nM.

For the compound `CS(=O)(=O)c1ccccc1-c1ccc2[nH]c(COc3ccc(C(F)(F)F)cc3)nc2c1` [Cpd 98, 5-(2-methanesulfonyl-phenyl)-2-(4-trifluoromethyl-phenoxymethyl)-1H-benzoimidazole], in experiment [1], the half-maximal inhibitory concentration (IC50) was found to be 2.1 nM and the inhibition at 0.5 µM amounted to 94%. Also, the inhibition in vivo at 10 mg/kg in experiment [2] came to 30%.

Turning to `CS(=O)(=O)Nc1ccccc1-c1ccc2[nH]c(COc3ccc(C(F)(F)F)cc3)nc2c1` [Cpd 101, N-{2-[2-(4-trifluoromethyl-phenoxymethyl)-1H-benzoimidazol-5-yl]-phenyl}-methanesulfonamide], in experiment [1], the half-maximal inhibitory concentration (IC50) was found to be 10 nM and the inhibition at 0.5 µM was 94%. Moreover, the inhibition in vivo at 10 mg/kg in experiment [2] turned out to be 22%.

Values taken from patent publication US7612211B2, “Benzimidazole TRPV1 inhibitors” (Janssen Pharmaceutica N.V., priority 2006, dated 2009).
